In a compilation of properties of binary mixtures (doi:10.1080/00319104.2019.1566461):

Assay: xn = mol fraction of the nth substance listed
Settings: 101.3 kPa

CCOS(=O)(=O)[O-].CC[n+]1ccn(C)c1 + CC(C)C(=O)O
x2 = 0
Settings	speed of sound [m/s]
293.15 K	1686.8
298.15 K	1671.4
303.15 K	1661.9
308.15 K	1649.6

CCCCC(=O)O + CCOS(=O)(=O)[O-].CC[n+]1ccn(C)c1
speed of sound [m/s]
Settings	288.15 K	293.15 K	298.15 K	303.15 K	308.15 K	313.15 K
x1 = 0.0974	–	1655.2	1642.4	1629.8	1617.2	1604.9
x1 = 0.1949	1636.9	–	1611	1598.1	1585.4	1572.9
x1 = 0.2975	1598.8	–	1572.4	–	1546.4	–
x1 = 0.3947	–	–	1538.1	1524.8	–	1498.6
x1 = 0.495	1525	1511.5	1497.7	1484.1	1470.7	1457.3
x1 = 0.595	–	–	1455.3	1441.2	–	1413.8
x1 = 0.6941	1435.7	1421.3	1406.7	1392.3	1377.9	1363.7
x1 = 0.7905	1383	1367.9	1352.6	1337.5	1322.4	1307.5
x1 = 0.8965	1315	1298.6	1282	1265.6	1249.4	1233.2
x1 = 0.926	1295.1	1278.3	1261.3	1244.4	1227.7	1211.1
x1 = 0.9529	1277.5	–	1242.8	–	1208.3	1191.3
x1 = 1	1253.7	1235.8	–	1199.5	–	1163.9

CC(C)C(=O)O + CCOS(=O)(=O)[O-].CC[n+]1ccn(C)c1
speed of sound [m/s]
Settings	288.15 K	293.15 K	298.15 K	303.15 K	308.15 K	313.15 K
x1 = 0.1122	1665.5	1652.8	1640	1627.4	1614.9	1602.6
x1 = 0.2295	–	–	1606.3	1593.5	1580.8	1568.2
x1 = 0.3297	1592.5	–	1566.2	1553.2	1540.2	1527.4
x1 = 0.4305	1554.5	1541.2	–	1514.4	1501.1	1488.1
x1 = 0.5464	1501.1	1487.4	–	1459.8	1446.2	1432.7
x1 = 0.6412	–	1439.4	1425.1	1411	1396.9	1383.1
x1 = 0.728	1398.5	1383.9	1369.1	1354.4	1339.9	1325.5
x1 = 0.8127	1331.5	–	–	1284.8	1269	1253.8
x1 = 0.9073	1256.7	1240	1222.8	1205.6	1188.9	1172.5
x1 = 0.9336	1233.1	1213.2	–	–	1162.5	–
x1 = 0.9576	1200.2	–	1158.9	1141	1122.2	1100.7
x1 = 1	1159	1140.3	1121.2	–	1083.6	1065.1

CCOS(=O)(=O)[O-].CC[n+]1ccn(C)c1 + CCCCC(=O)O
x2 = 0
Settings	speed of sound [m/s]
288.15 K	1696.4
293.15 K	1686.8
298.15 K	1671.4
303.15 K	1661.9
308.15 K	1649.6
313.15 K	1637.5
